In US12064507B2, “Composition and method for oral treatment of leukemia” (Provectus Pharmatech, Inc., priority 2019, dated 2024):
Where two headings read alike, the source gives them in different places. Where a SMILES comes first, the peptide text is derived from it. [ ]: non-standard residue; d: D form. The star is where a group is joined. Dolaproine = CO[C@@H]([C@@H]1CCCN1)[C@@H](C)C(=O)O; Dil = CC[C@H](C)[C@H](NC)[C@@H](CC(=O)O)OC; X1 = C[C@@H](N*)[C@@H](O)c1ccccc1; NMeV = CN[C@H](C(=O)O)C(C)C

Experiments:
[1] = test system: SEM cells (human ALL cells labelled with GFP); experiment: survival of CB17 SCID mice with SEM leukemia xenograft, oral treatment; type: in vivo; conditions: for survival / therapeutic activity in words: oral gavage twice weekly for two weeks, FIG. 1
Experimental: FIG. 1 is a graph showing survival of CB17 SCID mice from Charles River Laboratories International, Inc., treated with orally-administered rose bengal disodium. Exponentially-growing SEM cells (2.5×10^6 human ALL cells labelled with GFP) were injected intravenously into each animal and the establishment of tumors was monitored. After 4 weeks to permit the growth of the tumor, mice were randomized to three groups. Group 1 (n=9 control animals) received 100 μL of PBS given orally twice a week for two weeks. Group 2 (n=8 treatment Cohort I animals) received 25 μL of rose bengal disodium present at 10% w/v in 0.9% NaCl aqueous solution that was diluted in PBS to a final volume of 100 μL and given orally twice a week for 2 weeks. Group 3 (n=8 treatment Cohort II animals) received 12.5 μL of the above 10% w/v in 0.9% NaCl aqueous solution that was diluted in PBS to a final volume of 100 μL and administered orally twice a week for 2 weeks. […] Data are presented as Kaplan-Meier estimates.
Female C17 SCID mice from Charles River
The SEM cell line was initially established from a 5 year old female with B acute lymphoblastic leukemia. It carries the MLL-AFFF1 gene fusion and heterozygous for CDKN2A and TP53.
2.5×10^6 exponentially growing SEM cells [labelled with green fluorescent protein (GFP)] were injected intravenously into each animal and the establishment of tumors was monitored. After 4 weeks to permit the growth of the tumors, mice were randomized to three groups.
These animals received 100 μL of PBS given orally twice a week for two weeks.
These animals received 25 μL of PV-10® (10% rose bengal disodium w/v in 0.9 percent in aqueous saline) diluted in PBS to a final volume of 100 μL and given orally by gavage twice a week for 2 weeks.
These animals received 12.5 μL of PV-10® (as discussed above) diluted in PBS to a final volume of 100 μL and given orally by gavage twice a week for 2 weeks.
Data are presented in FIG. 1 as Kaplan-Meier estimates.

[2] = solubility and behaviour of HX compound forms in aqueous media; type: physicochemical; conditions: solutions of disodium RB mixed in
Text: The dibasic salt forms of the HX compounds exist in solution having a pH greater than approximately 5, whereas at pH values<5 the HX compounds spontaneously convert to their lactone form. […] Thus, optimizing formulation to properly compensate for the pH value of the GI tract is perhaps the most important parameter affecting bioavailability. For example, in the stomach, where pH value<4, dissolved HX compound is rapidly converted to the insoluble lactone form.
For example, the highly acidic gastric environment (pH 1.5-2 in the fasted state; pH 3-6 in the fed state) rises rapidly to about pH 6 in the duodenum and increases along the small intestine to pH 7.4 at the terminal ileum. The pH value in the cecum drops just below pH 6 and again rises in the colon reaching pH 6.7 at the rectum [Hua, Front Pharmacol 11:Article 524 (April 2020)].

[3] = oral bioavailability, mass balance studies; type: in vivo; conditions: aqueous solution, estimated from mass balance studies
Experimental: Bioavailability of RB disodium administered in aqueous solution via the oral route appears to be limited based on mass balance studies conducted by the inventors, and can be estimated at 0.1-1 percent, corresponding to a daily systemic exposure of 0.2-2 mg/kg. Presuming this amount is distributed through the bloodstream, and that blood volume comprises approximately 10 percent of body weight, this equates to an estimated concentration of 2-20 μM RB in the blood.

[4] = oral bioavailability, radiolabel studies with 14C-RB; type: in vivo; conditions: 14C-RB in aqueous solution given orally to mice
Text: The bioavailability of various HX compounds such as disodium rose bengal has not been well characterized. Studies commissioned by one of the assignees concluded that bioavailability of disodium rose bengal is less than (<) 1% based on radiolabel studies where ^14C-RB in aqueous solution was given orally to mice. In the stomach, with a pH value<4, an HX compound is likely to be in the lactone form.

[5] = test system: Apc^Min colorectal tumor model; type: in vivo, mice
Experimental: 26, 2021. […] Presuming a daily drinking water consumption rate of approximately 2 mL/10 g body weight, this corresponds to consumption of approximately 2 mg RB/10 g (200 mg/kg).
Those Apc^min mice are understood to have thereby consumed approximately 8 mg/10 g/day=800 mg/kg/day. That amount is consistent with toxicology data showing such a dose is tolerated.

[6] = clearance from circulation; cited from earlier work
[7] = tolerated dose in clinical studies of PV-10; type: in vivo, human
Experimental: The classic intravenous (IV) diagnostic assay for liver function using RB was conducted giving 100 mg RB as a single IV dose. In clinical studies of PV-10® aqueous RB disodium solution, RB has been tolerated at 1500 mg delivered IV. The standard adult blood volume is approximately 5 L. Thus, to achieve 100 mg/L in the blood, an adult patient would need to receive approximately 500 mg of RB IV to achieve the IC50 value in the bloodstream.
In clinical studies of PV-10® aqueous RB disodium solution, RB has been tolerated at 1500 mg delivered IL.

[8] = 112 mg bolus, 60 kg adult human, 1.9 mg/kg; cited from earlier work
[9] = cited from earlier work
[10] = test system: solid tumors (e.g., melanoma, hepatocellular carcinoma, breast carcinoma); conditions: intralesional, intratumoral RB about 25-50 mg/g tumor tissue (25-50 mM); cited from earlier work
[11] = test system: pediatric solid tumors (neuroblastoma and neuroepithelioma); conditions: in vitro contact for 96 hours; cited from earlier work
[12] = fed ad libitum continuously for 2 years, C57BL6N mice; cited from earlier work
[13] = test system: several cancer cell lines; conditions: cited from earlier work
[14] = nude mice; cited from earlier work
[15] = human, in vivo; cited from earlier work
[16] = symptomatic mice, 1 mg/mL ad libitum in drinking water

O=C([O-])c1c(Cl)c(Cl)c(Cl)c(Cl)c1-c1c2cc(I)c(=O)c(I)c-2oc2c(I)c([O-])c(I)cc12.[Na+].[Na+] [RB disodium, 4,5,6,7-tetrachloro-2′,4′,5′,7′-tetraiodofluorescein disodium]
survival of mice treated with lesser amounts ([1]; lesser amounts of HX compound (Cohort II, 12.5 μL PV-10), compared with the 62.5% group): much poorer survival rates
treated leukemic mice that survived for 120 days ([1]; oral gavage twice a week for 2 weeks, higher-dose group (Cohort I, 25 μL PV-10)): 62.5%
survival / therapeutic activity in words ([1]; two treatment groups): dose-dependent survival
behaviour in water solution having the pH value of the human stomach [2]: rapid clouding of the admixture and clumping
bioavailability via the oral route [3]: 0.1-1%
bioavailability [4]: < 1%

O=C1OC2(c3cc(I)c(O)c(I)c3Oc3c2cc(I)c(O)c3I)c2c(Cl)c(Cl)c(Cl)c(Cl)c21 [RB, 4,5,6,7-tetrachloro-2′,4′,5′,7′-tetraiodofluorescein]
effect on onset of disease ([5]; 4 mg/mL ad libitum in drinking water (about 800 mg/kg/day)): arrested onset of disease
estimated concentration of RB in the blood ([5]; mouse, in vivo): 2 to 20 µM
increase in mean survival relative to untreated mice [5, 16]: ~38%
mean survival [5, 16]: 12.3±0.5 weeks
estimated RB in the blood ([1]; assuming 1% bioavailability, intestinal transit 6 hours, blood volume 10 percent of body weight, two treatment groups): 125 to 250 µM
survival / therapeutic activity in words ([1]; two treatment groups): therapeutic activity was observed
circulatory half-time (t1/2) [6]: about 30 minutes
dose tolerated ([7]; delivered IL): 1500 mg
dose tolerated ([7]; delivered IV): 1500 mg
morbidity after IV bolus [8]: not reported to yield morbidity
pKa value [9]: 2.52
pKa value ([9]; second value): 1.81
time until acute tumor cytotoxicity is evident [10]: ≤ 30 min
concentrations demonstrating cytotoxicity [11]: 50 to 100 µM
dose well tolerated [12]: 970 mg/kg/day

CC[C@H](C)[C@@H]([C@@H](CC(=O)N1CCC[C@H]1[C@H](OC)[C@@H](C)C(=O)N[C@H](C)[C@@H](O)c1ccccc1)OC)N(C)C(=O)[C@@H](NC(=O)[C@@H](NC)C(C)C)C(C)C [monomethyl auristatin] (H-[NMeV]V[Dil][Dolaproine]-X1)
IC50 [13]: < 1 nM

Calicheamicin
LD50 [14]: 0.32 mg/kg

ipilimumab: anti-CTLA-4 monoclonal antibody, immune checkpoint inhibitor
terminal t1/2 [15]: 15.4 days
